System: S. hominis ATCC 27844
Assay: Malodour assay using lead acetate method (H2S formation by S. hominis, 96-well plate)
Assay type: cell-based
Conditions: for (%) Malodour generated: bacterial control = 100; for % malodour generation as compared to pectin: malodour assay, carbohydrates at 2 wt. %
Experimental: The test organisms was grown on TSA (Tryptic Soya Agar) plates overnight (22±2 hr). The organism was not more than 3 passages removed from the original source. The cell number was adjusted by re-suspending it in a suitable amount of physiological saline sufficient to achieve the required cell number based on optical density of the cells. The optical density (OD at 620 nm) of the cells were standardized to the cell number for the test organism using a spectrophotometer. A minimum final suspension of 1.0×10^8 CFU/mL was achieved by adjusting the OD to 0.2 in saline for the malodour assay. A 1% lead acetate solution was made in distilled water. Whatmann filter paper (cut in the size that could be placed over the wells of a well plate) was dipped in the lead acetate solution. The excess solution was drained and allowed to dry in Laminar Air Flow for 30 minutes. Stock solutions of the actives were prepared for performing the assay. A 0.5% citrus pectin was prepared by weighing 0.05 g of pectin in 10 ml sterile distilled water under magnetic stirrer for 30 min. A 1:10 dilution of this stock was prepared in sterile distilled water to achieve a final stock of 0.05% citrus pectin to perform the assay. A 1% stock of niacinamide was prepared by weighing 0.1 g in 10 ml sterile distilled water. The malodour assay was adapted from the method of Moore et al, 2003 and modified into a 96 well plate format. 100 μl Tryptic Soy Broth (TSB) with 0.1% L-cysteine-HCl was added into the wells of the 96-well plate. 20 μl of 0.2 OD culture of S. hominis was then added into the wells. The actives were added from the stock solutions at required concentrations and made up the volume to 200 μl with addition of sterile distilled water. The assay was done in triplicates. The lead acetate paper was placed over the wells and the lid of the 96-well plate was closed and incubated at 37° C. incubator overnight. After the incubation time, the dark coloration of the lead acetate paper was observed. Visible blackening of lead acetate in the area over the well indicated the presence of H2S. The intensity of the colour was recorded using a reflectometer as L*a*b* values. The difference between the initial and final L*a*b* values ΔE, was used to quantify malodour formation. The percentage malodour was calculated from ΔE measured using the above assay for the various actives or combinations.

[1] = Table 2, comparative carbohydrates at 2 wt. %
[2] = Table 1, active wt % as given per example, S. hominis in TSB with 0.1% L-cysteine-HCl, 37° C. overnight, calculated from ΔE

SMILES	(%) Malodour generated [1] [%]	% malodour generation as compared to pectin (Table 2)	(%) Malodour generated [2] [%]
O=C[C@H](O)[C@@H](O)[C@@H](O)[C@H](O)CO [J, Galactose]	90	higher	–
OC[C@H]1O[C@@](CO)(O[C@H]2O[C@H](CO)[C@@H](O)[C@H](O)[C@H]2O)[C@@H](O)[C@@H]1O [F, Sucrose]	100	higher	–
NC(=O)c1cccnc1 [C, Niacinamide]	–	–	89
NC(=O)c1cccnc1 [D, Niacinamide]	–	–	71

Reference: US20240390256A1, “A DEODORANT COMPOSITION” (priority 2021, published 2024)
